Measured values published in patent US20050049197A1, “Induction of immune response against desired determinants” (Epimmune Inc., priority 1993, published 2005).
Non-standard residues stand in square brackets, D forms with d. Residues, ends and D or L forms follow the SMILES beside them. Cha = N[C@@H](CC1CCCCC1)C(=O)O

Legend:
DQ3.1 = tested on: DQ3.1; parameters: species or system human; details: read-out: Binding Activity DQ3.1, IC50
DRw53 = DRw53 (Homo sapiens, UniProt P01903+P13762); assay: biochemical; format: binding
DRw53, sequence (P01903 26-254): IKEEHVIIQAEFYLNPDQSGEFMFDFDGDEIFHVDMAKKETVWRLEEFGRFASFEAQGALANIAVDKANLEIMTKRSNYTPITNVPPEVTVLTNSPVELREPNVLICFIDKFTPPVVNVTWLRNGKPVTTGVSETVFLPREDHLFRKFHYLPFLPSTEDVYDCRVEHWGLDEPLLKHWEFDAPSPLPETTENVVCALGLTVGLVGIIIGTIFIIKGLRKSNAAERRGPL
DRw53, sequence (P13762 30-266): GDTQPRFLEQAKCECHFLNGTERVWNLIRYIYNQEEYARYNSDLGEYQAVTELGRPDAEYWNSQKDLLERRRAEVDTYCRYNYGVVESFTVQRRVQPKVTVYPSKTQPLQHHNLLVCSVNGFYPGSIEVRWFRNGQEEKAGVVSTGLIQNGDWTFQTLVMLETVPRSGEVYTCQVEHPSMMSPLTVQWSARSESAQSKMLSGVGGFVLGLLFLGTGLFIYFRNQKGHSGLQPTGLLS

[1] = tested on: PBMC from normal individuals; assay: In vitro T cell proliferative responses of human PBMC ([3H]thymidine incorporation); format: cell-based; details: for AVERAGE S.I. / AVERAGE ΔMAX CPM: average of 5 donors; for X144 (Δmax cpm) / X144 S.I.: donor X144; for X162 (Δmax cpm) / X162 S.I.: donor X162; for X349 (Δmax cpm) / X349 S.I.: donor X349; for X372 (Δmax cpm) / X372 S.I.: donor X372; for X460 (Δmax cpm) / X460 S.I.: donor X460
DR2w2b = tested on: DR2w2b; parameters: species or system human; details: read-out: Binding Activity DR2wB2, IC50
P. yoelii sporozoites = assay: Inhibition of liver stage development assay (ILSDA), mouse hepatocytes infected with P. yoelii sporozoites; format: cell-based; details: sera of immunized mice, dilution not stated
Description: In certain experiments, peptides were emulsified in complete Freund's adjuvant (CFA) and injected subcutaneously (S.C.) at the base of the tail in 100 μl volume containing 100 μg of peptide. Mice were boosted with 100 μg of peptide emulsified in 100 μl of incomplete Freund's adjuvant (IFA) 1 month later. Mice were bled just prior to boosting, and 2 weeks after boosting.
All cell culture reagents were obtained from quality Biological, Gaithersburg, Md. The slides were incubated overnight at 37° C. in a 5% CO2/95% air environment. The medium was changed the following day and fresh medium containing dexamethasone (7×10^−5) was added to the cultures.
The 17XNL (nonlethal) strain of P. yoelii or the NF54 strain of P. falciparum were used for murine and human hepatocyte in vitro infections, respectively.
Briefly, 25 μl of the serum samples, diluted to 2× their final concentration, were added to triplicate chamber-slide wells. P. yoeilli or P. falciparum sporozoites, 75,000/well, were then added in a volume of 25 μl to the mouse or human hepatocyte cultures respectively. The cultures were incubated for 3 h, then washed extensively with fresh medium to remove unattached sporozoites. The infected hepatocytes were then incubated for a further 2 (P. yoelii) or 5 days (P. falciparum) with the medium being changed each day of culture. The slides were fixed and immunostained with either a P. yoelii- or P. falciparum-specific monoclonal antibody. Schizonts were counted from the triplicate cultures and the percent inhibition determined as follows: control−test/control×100. Sera from mice injected with CFA (first dose) and IFA (second and third doses) served as the negative controls.

DR5 = tested on: DR5; parameters: species or system human; details: read-out: Binding Activity DR5, IC50

Compound	IC50 (DQ3.1) [nM]	AVERAGE S.I. ([1]; 2nd Stimulation)	AVERAGE ΔMAX CPM ([1]; 2nd Stimulation) [cpm]	X144 (Δmax cpm) ([1]; 2nd Stimulation) [cpm]	X144 S.I. ([1]; 2nd Stimulation)	X162 (Δmax cpm) ([1]; 2nd Stimulation) [cpm]	X162 S.I. ([1]; 2nd Stimulation)	X349 (Δmax cpm) ([1]; 2nd Stimulation) [cpm]	X349 S.I. ([1]; 2nd Stimulation)	X372 (Δmax cpm) ([1]; 2nd Stimulation) [cpm]	X372 S.I. ([1]; 2nd Stimulation)	X460 (Δmax cpm) ([1]; 2nd Stimulation) [cpm]	X460 S.I. ([1]; 2nd Stimulation)	AVERAGE S.I. ([1]; 3rd Stimulation)	AVERAGE ΔMAX CPM ([1]; 3rd Stimulation) [cpm]	X144 (Δmax cpm) ([1]; 3rd Stimulation) [cpm]	X144 S.I. ([1]; 3rd Stimulation)	X162 (Δmax cpm) ([1]; 3rd Stimulation) [cpm]	X162 S.I. ([1]; 3rd Stimulation)	X349 (Δmax cpm) ([1]; 3rd Stimulation) [cpm]	other results
CC(C)C[C@H](NC(=O)[C@@H](NC(=O)[C@H](Cc1c[nH]c2ccccc12)NC(=O)[C@H](C)NC(=O)[C@H](C)NC(=O)[C@@H](NC(=O)[C@H](CC1CCCCC1)NC(=O)[C@H](CCCCN)NC(=O)[C@H](C)N)C(C)C)[C@@H](C)O)C(=O)N[C@@H](CCCCN)C(=O)N[C@@H](C)C(=O)N[C@@H](C)C(=O)N[C@@H](C)C(N)=O [965.17]	> 10000	2.4	12738	17391	1.7	6323	2	26512	5.6	8471	1.3	4994	1.3	3.5	25399	32665	4.1	28065	4.1	31983	IC50 (DRw53): 170 nM; X349 S.I. ([1]; 3rd Stimulation): 4; X372 (Δmax cpm) ([1]; 3rd Stimulation): 30661 cpm; X372 S.I. ([1]; 3rd Stimulation): 3.2; X460 (Δmax cpm) ([1]; 3rd Stimulation): 3619 cpm; X460 S.I. ([1]; 3rd Stimulation): 2.2; IC50 (DR2w2b): 5.9 nM
CC(C)C[C@H](NC(=O)[C@@H](NC(=O)[C@H](Cc1c[nH]c2ccccc12)NC(=O)[C@H](C)NC(=O)[C@H](C)NC(=O)[C@@H](NC(=O)[C@H](CC1CCCCC1)NC(=O)[C@H](CCCCN)NC(=O)[C@@H](C)N)C(C)C)[C@@H](C)O)C(=O)N[C@@H](CCCCN)C(=O)N[C@@H](C)C(=O)N[C@H](C)C(=O)N[C@@H](CCC(N)=O)C(=O)NCC(=O)N1CCC[C@H]1C(=O)NCC(=O)N[C@@H](C)C(=O)N1CCC[C@H]1C(=O)N[C@@H](CCC(N)=O)C(=O)NCC(=O)N1CCC[C@H]1C(=O)NCC(=O)N[C@@H](C)C(=O)N1CCC[C@H]1C(=O)N[C@@H](CCC(N)=O)C(=O)NCC(=O)N1CCC[C@H]1C(=O)NCC(=O)N[C@@H](C)C(=O)N1CCC[C@H]1C(=O)N[C@@H](CCC(N)=O)C(=O)NCC(=O)N1CCC[C@H]1C(=O)NCC(=O)N[C@@H](C)C(=O)N1CCC[C@H]1C(=O)NCC(=O)NCC(=O)N[C@@H](CO)C(=O)O [PADRE ®-PyB, aKXVAAWTLKAa(QGPGAP)4GGS] (H-[dA]K[Cha]VAAWTLKA[dA]QGPGAPQGPGAPQGPGAPQGPGAPGGS-OH; N-terminus and C-terminus assumed)	–	–	–	–	–	–	–	–	–	–	–	–	–	–	–	–	–	–	–	–	inhibition of P. yoelii sporozoite invasion and development in murine hepatocytes (P. yoelii sporozoites): approximately 90%
CC(C)C[C@H](NC(=O)[C@@H](NC(=O)[C@H](C)NC(=O)[C@H](C)NC(=O)[C@H](C)NC(=O)[C@@H](NC(=O)[C@H](CC1CCCCC1)NC(=O)[C@H](CCCCN)NC(=O)[C@@H](C)N)C(C)C)[C@@H](C)O)C(=O)N[C@@H](CCCCN)C(=O)N[C@@H](C)C(=O)N[C@@H](C)C(=O)N[C@H](C)C(N)=O [965.16]	> 10000	1.3	1843	4388	1.2	4090	2.1	0	1	736	1	0	1	1.5	5955	5220	1.5	4762	1.9	9316	X349 S.I. ([1]; 3rd Stimulation): 1.6; X372 (Δmax cpm) ([1]; 3rd Stimulation): 10439 cpm; X372 S.I. ([1]; 3rd Stimulation): 1.7; X460 (Δmax cpm) ([1]; 3rd Stimulation): 37 cpm; X460 S.I. ([1]; 3rd Stimulation): 1; IC50 (DR5): 16.7 nM; IC50 (DR2w2b): 6.1 nM
